Legend:
SCD1 = target: T1, SCD1 (Homo sapiens, UniProt O00767); assay: Growth inhibition of humanized yeast strain expressing SCD1 as sole desaturase; assay type: cell-based
T1 construct: host or cells: S. cerevisiae ole1Δ strain (W303 pdr1Δ pdr3Δ background), plasmid pRS316 with TDH3 promoter and CYC1 terminator
T1 sequence (O00767 1-359): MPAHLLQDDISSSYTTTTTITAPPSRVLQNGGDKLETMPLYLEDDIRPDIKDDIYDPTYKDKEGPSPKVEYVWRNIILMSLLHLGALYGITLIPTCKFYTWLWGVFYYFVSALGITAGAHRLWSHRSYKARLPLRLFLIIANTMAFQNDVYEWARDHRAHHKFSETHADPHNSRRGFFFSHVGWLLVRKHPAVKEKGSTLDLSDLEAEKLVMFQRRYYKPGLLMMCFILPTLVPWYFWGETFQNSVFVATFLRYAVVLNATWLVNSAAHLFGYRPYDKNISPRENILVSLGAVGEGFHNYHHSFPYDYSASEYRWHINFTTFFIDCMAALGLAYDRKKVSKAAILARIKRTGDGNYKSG
Outline: (§1)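 ole1Δ yeast (W303 pdr1Δ pdr3Δ background) carrying plasmid-borne Ole1, SCD1 or SCD5, grown in uracil-free media; cultures pre-grown in raffinose, seeded at 2× density 0.02 in galactose media with compound. Growth read as OD600 after 24 h at 30° C. for Ole1, 40 h for SCD1/SCD5.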

SCD5 = target: T2, SCD5 (Homo sapiens, UniProt Q86SK9); assay: Growth inhibition of humanized yeast strain expressing SCD5 as sole desaturase; assay type: cell-based
T2 construct: host or cells: S. cerevisiae ole1Δ strain (W303 pdr1Δ pdr3Δ background), plasmid pRS316 with TDH3 promoter and CYC1 terminator
T2 sequence (Q86SK9 1-330): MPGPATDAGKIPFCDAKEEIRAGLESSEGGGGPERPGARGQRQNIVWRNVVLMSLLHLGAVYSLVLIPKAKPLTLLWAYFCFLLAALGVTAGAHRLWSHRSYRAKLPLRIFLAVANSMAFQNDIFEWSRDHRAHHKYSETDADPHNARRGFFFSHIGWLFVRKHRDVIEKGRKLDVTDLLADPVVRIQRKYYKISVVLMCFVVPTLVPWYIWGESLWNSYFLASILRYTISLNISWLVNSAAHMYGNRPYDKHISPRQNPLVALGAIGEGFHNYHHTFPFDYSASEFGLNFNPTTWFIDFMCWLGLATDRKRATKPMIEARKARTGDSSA
Outline: as §1

[1] = growth inhibition of humanized yeast strain expressing human SCD1
[2] = growth inhibition of humanized yeast strain expressing human SCD5
[3] = humanized yeast strain expressing SCD1
[4] = humanized yeast strain expressing SCD5

SMILES | IC50 (SCD1; humanized yeast strain, 40 h) [µM] | IC50 (SCD5; humanized yeast strain, 40 h) [nM] | further results
CC(C)C(=O)N1CCN(c2noc(-c3ccnc(Cl)c3)n2)CC1 [Compound 1119] | > 45 | > 45000 | 
O=C(N1CCC(c2noc(-c3cccc(N4CCOCC4)c3)n2)CC1)C1(F)CC1 [Compound 1080] | > 45 | 501 | 
CC(C)n1ncc2ccc(-c3noc(N4CCN5C(=O)N(C)CC5C4)n3)cc21 (stereo not shown) [Compound 1108] | > 45 | > 45000 | 
CC1(OC(=O)N2CCC(c3nnc(-c4ccc5cnn(C6COC6)c5c4)o3)CC2)CC1 [Compound 980] | > 45 | 877 | 
C[C@@H]1CN(c2noc(-c3ccc4cnn(C5COC5)c4c3)n2)CCN1C(=O)OC(C)(C)C [Compound 959] | > 45 | > 45000 | 
COC(=O)N1CC2(C1)CN(c1noc(-c3ccc4cnn(C5COC5)c4c3)n1)C2 [Compound 1063] | > 45 | 3440 | 
CC(C)C(=O)N1CCC(c2noc(-c3ccnc(C4CCOC4)c3)n2)CC1 (stereo not shown) [Compound 1090] | > 45 | 540 | 
CC(C)(C)OC(=O)N1CC=C(c2nc(-c3ccc4cnn(C5COC5)c4c3)ns2)CC1 [Compound 633] |  |  | IC50 (SCD1; [1]): > 45 µM; IC50 (SCD5; [2]): 214 nM
CC(C)(C)OC(=O)N1CCC(c2nc(-c3ccc4cnn(C5CC5)c4c3)no2)CC1 [Compound 360] |  |  | SCD1 % Max Inhibition (SCD1; [3]): 64.03%; IC50 (SCD5; [4]): > 45000 nM; SCD5 % Max Inhibition (SCD5; [4]): 2.38%
CC(C)(C)OC(=O)N1CCC(c2nc(-c3ccc4cnn(C(C)(C)CO)c4c3)no2)CC1 [Compound 736] |  |  | IC50 (SCD1; [1]): 32.6 µM; IC50 (SCD5; [2]): 260 nM
Cc1nn(C)c2cc(-c3nc(C4CCN(C(=O)OC5CC5)CC4)no3)ccc12 [Compound 911] | > 45 | > 45000 | 
CC(C)(C)OC(=O)N1CCC(c2noc(-c3ccc(=O)n(C4COC4)c3)n2)CC1 [Compound 1113] | > 45 | 494 | 
CC(C)n1ncc2ccc(-c3nc(N4CCn5c(Cl)cnc5C4)no3)cc21 [Compound 828] | > 45 | 67 | 
O=C(N1CCC(c2noc(-c3ccc4cnn(C5COC5)c4c3)n2)CC1)C1(F)CCC1 [Compound 1029] | > 45 | 10 | 
COc1cc(-c2nc(C3CCN(C(=O)OC(C)(C)C)CC3)no2)cc2c1cnn2C1COC1 [Compound 1076] | > 45 | 1030 | 
CC1(C(=O)N2CCC(c3noc(-c4ccnc(C5CCOC5)c4)n3)CC2)CCC1 (stereo not shown) [Compound 1179] | > 45 | 110 | 
COC(=O)N1CCC(c2noc(-c3ccnc(C4CCOC4)c3)n2)CC1 (stereo not shown) [Compound 1015] | > 45 | 429 | 
CC(C)(C)OC(=O)N1CCC(c2nc(-c3ccc4cnn(C5COC5)c4c3)ns2)CC1 [Compound 621] |  |  | IC50 (SCD1; [1]): > 45 µM; IC50 (SCD5; [2]): 42 nM
CC(C)n1ncc2ccc(-c3noc(C4CCN(C(=O)C5CC(=O)N(C)C5(C)C)CC4)n3)cc21 (stereo not shown) [Compound 616] |  |  | IC50 (SCD1; [1]): > 45 µM; IC50 (SCD5; [2]): > 45000 nM
O=C(N1CCC(c2noc(-c3ccnc(NC4COC4)c3)n2)CC1)C1(F)CC1 [Compound 1116] | > 45 | 1410 | 
CC(C)(C)OC(=O)N1CCC(c2noc(-c3ccnc(CC4CC4)c3)n2)CC1 [Compound 1082] | > 45 | 359 | 
CC(C)n1ncc2ccc(-c3noc(C4CCN(S(=O)(=O)C5CCCCC5)CC4)n3)cc21 [Compound 673] |  |  | IC50 (SCD1; [1]): > 45 µM; IC50 (SCD5; [2]): 33800 nM
CC(C)c1ncn2ccc(-c3nc(C4CCN(C(=O)OC(C)(C)C)CC4)no3)cc12 [Compound 1040] | > 45 | 791 | 
COC(=O)N1CCCC(c2noc(-c3ccc4cnn(C5COC5)c4c3)n2)CC1 (stereo not shown) [Compound 873] | > 45 | 41300 | 

SMILES | IC50 (SCD1; humanized yeast strain, 40 h) [µM] | IC50 (SCD5; humanized yeast strain, 40 h) [nM] | further results
CC(C)(C)OC(=O)N1CCC(c2nc(-c3ccc4cn(C5CCC5)nc4c3)no2)CC1 [Compound 731] |  |  | IC50 (SCD1; [1]): > 45 µM; IC50 (SCD5; [2]): > 45000 nM
COC(=O)N1CCC(c2noc(-c3ccc4c(C)nn(C)c4c3)n2)CC1 [Compound 921] | > 45 | 3400 | 
O=C(N1CCC(c2noc(-c3ccc4cnn([C@@H]5CCOC5)c4c3)n2)CC1)C1(F)CC1 [Compound 1096] | > 45 | 1.01 | 
O=C(OC1CC1)N1CCC(c2noc(-c3cc(F)c4cnn(C5COC5)c4c3)n2)CC1 [Compound 1071] | > 45 | 3.03 | 
CC(C)n1ncc2ccc(-c3noc(C4CCN(C(=O)N5CCCC5C#N)CC4)n3)cc21 (stereo not shown) [Compound 666] |  |  | IC50 (SCD1; [1]): > 45 µM; IC50 (SCD5; [2]): > 45000 nM
CC(C)(C)OC(=O)N1CCC(c2noc(-c3ccc4oc(=O)[nH]c4c3)n2)CC1 [Compound 1009] | > 45 | 9510 | 
CC(C)n1ncc2ccc(-c3noc(C4CCN(C(=O)OC5(C)CC5)CC4(F)F)n3)cc21 (stereo not shown) [Compound 584] |  |  | IC50 (SCD1; [3]): > 45 µM; IC50 (SCD5; [4]): 5340 nM
O=C1CC(c2noc(-c3ccc4cnn(C5COC5)c4c3)n2)CCN1CC1CC1 (stereo not shown) [Compound 1141] | > 45 | 865 | 
COCCc1nn(C(C)C)c2cc(-c3noc(C4CCN(C(=O)OC(C)(C)C)CC4)n3)ccc12 [Compound 702] |  |  | IC50 (SCD1; [1]): > 45 µM; IC50 (SCD5; [2]): > 45000 nM
CC(C)C(=O)N1CCC(c2noc(-c3cncc(N4CCC(F)(F)C4)c3)n2)CC1 [Compound 1174] | > 45 | 10400 | 
CC(C)n1ncc2ccc(-c3noc(C4CCN(C(=O)C(C)(C)C#N)CC4)n3)cc21 [Compound 717] |  |  | IC50 (SCD1; [1]): > 45 µM; IC50 (SCD5; [2]): 1700 nM
COC1(C(=O)N2CCC(c3noc(-c4ccc5cnn(C6COC6)c5c4)n3)CC2)CC1 [Compound 902] | > 45 | 10 | 
CCC(=O)N1CCN(c2noc(-c3ccc4cnn(C5COC5)c4c3)n2)CC(F)(F)C1 [Compound 1038] | > 45 | 2300 | 
CC(C)n1ncc2ccc(-c3nc(N4CCN(C(=O)c5ncccc5F)CC4)no3)cc21 [Compound 845] | > 45 | 637 | 
COC(=O)N1CCC(c2cc(-c3cc4c(cn3)cnn4C(C)C)no2)CC1 [Compound 1088] | > 45 | 2520 | 
CC1(OC(=O)N2CCC(c3noc(-c4ccnc([C@@H]5CCOC5)c4)n3)CC2)CC1 [Compound 1137] | > 45 | 52.2 | 
CC(C)(C)OC(=O)N1CCC(c2noc(N3CCc4c(cnn4C4COC4)C3)n2)CC1 [Compound 1173] | ≥ 45 | 23400 | 
O=C(C1CCC1)N1CCN(c2nnc(-c3ccc4cnn(C5COC5)c4c3)o2)CC1 [Compound 996] | > 45 | 5040 | 
COC1(C2CCN(c3nc(-c4ccc5cnn(C(C)C)c5c4)no3)CC2)COC1 [Compound 830] | > 45 | > 45000 | 
CNC(=O)OC1CCC(c2nc(-c3ccc4cnn(C(C)C)c4c3)no2)CC1 (stereo not shown) [Compound 608] |  |  | IC50 (SCD1; [1]): > 45 µM; IC50 (SCD5; [2]): > 45000 nM
CC(C)(C)OC(=O)N1CCC(c2nc(-c3cccc(C(=O)N4CCC4)c3)no2)CC1 [Compound 741] |  |  | IC50 (SCD1; [1]): > 45 µM; IC50 (SCD5; [2]): 7760 nM
CC(C)(C)OC(=O)N1CCC(c2ccc(-c3ccc4cnn(C5COC5)c4c3)nn2)CC1 [Compound 1030] | > 45 | 11000 | 
O=C(C1CCC1)N1CCN(c2noc(-c3ccc4cnn(C5COC5)c4c3)n2)CC1 [Compound 838] | > 45 | 21 | 
CC(C)(C)CC(=O)N1CCC(c2nc(-c3ccc4cnn(C(=O)C5CCO5)c4c3)no2)CC1 (stereo not shown) [Compound 727] |  |  | IC50 (SCD1; [1]): > 45 µM; IC50 (SCD5; [2]): > 45000 nM

— patent publication US11873298B2, “Compounds and uses thereof” (JANSSEN PHARMACEUTICA NV, priority 2017, dated 2024)
